What was measured:
Details in all cases: incubation time: 72 h
[1] = test system: BT-474; experiment: normalised viability (% of control), CellTiter-Blue; higher = more viable cells (about 100 = DMSO control)
Method in brief: (§1)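 384-well plates were pre-loaded with compound in 5 µl medium before 20 µl of breast cancer cell suspension was seeded. Following 72 h incubation, 2.5 µl CellTiter-Blue reagent was added for 2 h at 37 °C. Fluorescence was read at 560/590 nm and plates were normalised to vehicle (100) and a positive kill control (0), checked by Z'-factor. Normalised viability is reported at a single listed concentration of the series.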

[2] = test system: BT-549; experiment: as above
Method in brief: as §1

[3] = test system: CAL-120; experiment: as above
Method in brief: as §1

[4] = test system: CAL-148; experiment: as above
Method in brief: as §1

[5] = test system: CAL-51; experiment: as above
Method in brief: as §1

[6] = test system: CAL-85-1; experiment: as above
Method in brief: as §1

[7] = test system: DU-4475; experiment: as above
Method in brief: as §1

[8] = test system: HCC1143; experiment: as above
Method in brief: as §1

[9] = test system: HCC1599; experiment: as above
Method in brief: as §1

[10] = test system: HCC1937; experiment: as above
Method in brief: as §1

[11] = test system: HDQ-P1; experiment: as above
Method in brief: as §1

[12] = test system: Hs578T; experiment: as above
Method in brief: as §1

[13] = test system: MDA-MB-231; experiment: as above
Method in brief: as §1

[14] = test system: MDA-MB-436; experiment: as above
Method in brief: as §1

[15] = test system: MDA-MB-453; experiment: as above
Method in brief: as §1

[16] = test system: MDA-MB-468; experiment: as above
Method in brief: as §1

[17] = test system: MFM-223; experiment: as above
Method in brief: as §1

[18] = test system: SK-BR-3; experiment: as above
Method in brief: as §1

[19] = test system: HCC1143; experiment: drug sensitivity score (DSS), CellTiter-Blue viability (DSS (AUC-based score)); higher = stronger viability inhibition; extreme values may be limits of the assay
Method in brief: (§2)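 A 72 h incubation followed seeding of breast cancer cell lines (20 µl suspension) into 384-well plates holding compound in a 5- or 9-concentration series. CellTiter-Blue, 2.5 µl per well, was incubated 2 h at 37 °C, and fluorescence was measured at 560/590 nm. Normalisation on every plate used 0.1 % DMSO and a positive kill control. From the fitted dose-response curve, the area under the curve was taken as the drug sensitivity score.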

[20] = test system: MDA-MB-468; experiment: as above
Method in brief: as §2

[21] = test system: SK-BR-3; experiment: as above
Method in brief: as §2

[22] = test system: MDA-MB-231; experiment: drug sensitivity score (DSS), CellTox Green (DSS (AUC-based score)); higher = stronger drug effect (viability inhibition or cytotoxicity); extreme values may be limits of the assay
Method in brief: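 Breast cancer cell lines, seeded as 20 µl suspension, were incubated 72 h with compound in 384-well plates at 5 concentrations in 10-fold steps over a 10,000-fold range set for each compound. Fluorescence from CellTox Green was read at 485/520 nm before CellTiter-Glo luminescence, which was read after 10 min at room temperature. Every plate was normalised to 0.1 % DMSO and a positive kill control, and the drug sensitivity score was taken from the area under the fitted dose-response curve.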

Oc1ccc2c(c1)CC[C@H](c1ccccc1)[C@@H]2c1ccc(OCCN2CCCC2)cc1 [Lasofoxifene]
normalised viability [%]
Details	0.3 nM	1 nM	3 nM	10 nM	100 nM	1000 nM
[1]	–	122	–	–	114	110
[2]	–	88.1	–	–	83.2	90.3
[3]	–	77.6	–	–	87.8	95.8
[4]	95.9	–	104	102	–	–
[5]	100	–	97.9	92.6	–	–
[6]	83.5	–	82.5	93	–	–
[7]	93.6	–	91.9	88.8	–	–
[8]	–	86	–	–	104	95.6
[9]	–	96	–	–	81.4	103
[10]	–	88.6	–	–	109	121
[11]	97.7	–	114	101	–	–
[12]	–	108	–	–	103	118
[13]	–	93.1	–	–	95.2	95.3
[14]	–	95.5	–	–	84.3	101
[15]	115	–	98.3	98.9	–	–
[16]	–	95	–	–	95.8	94.4
[17]	–	83.5	–	–	84	89.7
[18]	–	108	–	–	98.4	101

Details	drug sensitivity score
[19]	0
[20]	0
[21]	0
[22]	0

Cc1ccc(NC(=O)c2ccc(CN3CCN(C)CC3)cc2)cc1Nc1nc(-c2cccnc2)cs1 [Masitinib]
normalised viability [%]
Details	3 nM	10 nM	30 nM	100 nM	1000 nM	10000 nM
[1]	–	105	–	–	101	50.1
[2]	–	94.2	–	–	100	51.2
[3]	–	82.4	–	–	81.8	79.3
[4]	80.9	–	82.8	90.6	–	–
[5]	106	–	100	97.5	–	–
[6]	94.8	–	75.5	90.8	–	–
[7]	109	–	91.4	95.5	–	–
[8]	–	77.4	–	–	88.7	85.5
[9]	–	86.2	–	–	97.6	95.8
[10]	–	97.3	–	–	99.5	84.8
[11]	94	–	92.9	99.5	–	–
[12]	–	113	–	–	113	81.4
[13]	–	96.7	–	–	91.1	50.4
[14]	–	97.5	–	–	111	72.4
[15]	112	–	123	105	–	–
[16]	–	93.3	–	–	105	53.4
[17]	–	89.2	–	–	93.7	92.5
[18]	–	99.6	–	–	102	25.2

Details	drug sensitivity score
[19]	0
[20]	0
[21]	2.27
[22]	5.53

Source: the supplement of paper PMC4862054
